Experimental data reported in ChEMBL document CHEMBL2440103, “Synthesis, docking, and biological studies of phenanthrene β-diketo acids as novel HIV-1 integrase inhibitors” (Bioorg Med Chem Lett, 2013).

Experiments:
[1] = molecular target: T1, Human immunodeficiency virus type 1 integrase (Human immunodeficiency virus 1, UniProt Q7ZJM1); test: Inhibition of Human immunodeficiency virus 1 integrase strand transfer activity after 30 mins by polyacrylamide gel electrophoresis
[2] = molecular target: T1, Human immunodeficiency virus type 1 integrase; test: Inhibition of Human immunodeficiency virus 1 integrase-mediated 3'-processing after 30 mins by polyacrylamide gel electrophoresis
CCRF-CEM = test: Cytotoxicity against human CEM cells; type: cell-based
Vero = test: Cytotoxicity against african green monkey Vero cells; type: cell-based; conditions: Chlorocebus sabaeus
[3] = system: Human immunodeficiency virus 1; test: Antiviral activity against Human immunodeficiency virus 1 infected in human PBMC assessed as inhibition of viral replication after 5 days by RT-PCR method; type: functional, organism-based; conditions: Human immunodeficiency virus 1, 120 h
PBMC = test: Cytotoxicity against human PBMC; type: cell-based
[4] = molecular target: Human immunodeficiency virus type 1 integrase (Human immunodeficiency virus 1) (UniProt Q7ZJM1); test: Selectivity ratio of IC50 for Human immunodeficiency virus 1 integrase-mediated 3'-processing to IC50 for Human immunodeficiency virus 1 integrase strand transfer activity
Sequence of Human immunodeficiency virus type 1 integrase (Human immunodeficiency virus 1) (Q7ZJM1 as listed by the source): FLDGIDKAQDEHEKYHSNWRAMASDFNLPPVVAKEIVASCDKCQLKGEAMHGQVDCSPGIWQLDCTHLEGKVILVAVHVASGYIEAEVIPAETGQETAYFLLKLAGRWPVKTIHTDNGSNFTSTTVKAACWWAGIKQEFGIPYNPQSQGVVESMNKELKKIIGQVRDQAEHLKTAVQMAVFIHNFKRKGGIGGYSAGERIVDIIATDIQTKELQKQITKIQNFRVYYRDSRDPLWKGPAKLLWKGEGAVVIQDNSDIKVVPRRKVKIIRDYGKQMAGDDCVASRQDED

T1 sequence (Q7ZJM1 whole entry): as the sequence (Q7ZJM1 as listed by the source) above

In the case of `O=C(O)C(=O)CC(=O)c1ccc2ccc3c(Cl)cccc3c2c1`, the IC50 [1] is reported as 1.2 µM and the IC50 [2] is reported as 11 µM.

For `O=C(O)C(=O)CC(=O)c1ccc2ccc3cc(F)ccc3c2c1F`, the IC50 [1] was 8 µM and the IC50 [2] was 63 µM.

`O=C(O)C(=O)CC(=O)c1ccc2c(ccc3c(Cl)cccc32)c1` showed an IC50 [1] of 4 µM and an IC50 [2] of 19 µM.

Compound `O=C(O)C(=O)CC(=O)c1ccc2ccc3c(F)cccc3c2c1` has an IC50 [1] of 3 µM and an IC50 [2] of 11 µM.

`O=C(O)C(=O)CC(=O)c1ccc2c(ccc3ccc(Cl)cc32)c1` gave an IC50 (CCRF-CEM) of 13.1 µM, an IC50 (Vero) of 4.5 µM and an IC50 [1] of 1.3 µM. For the same compound, the EC50 [3] was 27.5 µM, the IC50 (PBMC) was 4 µM and the IC50 [2] was 5 µM.

For `Cc1cn([C@H]2C[C@H](N=[N+]=[N-])[C@@H](CO)O2)c(=O)[nH]c1=O` [ZIDOVUDINE], the IC50 (PBMC) was over 100 µM.

`O=C(O)C(=O)CC(=O)c1ccc2c(ccc3c(F)cccc32)c1` gave an IC50 [1] of 4 µM and an IC50 [2] of 35 µM.

For `COc1ccc2c(c1)cc(C(=O)CC(=O)C(=O)O)c1c(F)cccc12`, the IC50 [1] was 6 µM and the IC50 [2] was 44 µM.

In the case of `COc1ccc2c(c1)cc(C(=O)CC(=O)C(=O)O)c1ccccc12`, the IC50 [1] is reported as 3 µM and the IC50 [2] is reported as 32 µM.

Work on `O=C(O)C(=O)CC(=O)c1ccc2c(ccc3cc(Cl)ccc32)c1` yielded an IC50 (CCRF-CEM) of 12.1 µM, an IC50 (Vero) of 7.2 µM and a Ratio IC50 [4] of 9. For the same compound, the IC50 [1] was 1.4 µM, the EC50 [3] was 20.9 µM and the IC50 (PBMC) was 14.1 µM. It also gave an IC50 [2] of 12 µM.

For `O=C(O)C(=O)CC(=O)c1ccc2ccc3ccccc3c2c1F`, the IC50 [1] was 63 µM and the IC50 [2] was 83 µM.
